The source made the active and inactive calls.
Experiments:
[1] = inhibitors of TRPM1-promoter reporter in SK-MEL-5 – cell-based, luciferase, dry powder, set 8, MITF inhibitor project, dose response (AID 624430); format: functional
[2] = MITF: Counter assay: A375 proliferation Measured in Cell-Based System Using Plate Reader - 2084-03_Inhibitor_Dose_DryPowder_Activity_Set8.; format: functional; details: A-375
[3] = MITF Orthogonal Assay: SK-MEL-5 CTG Assay Measured in Cell-Based System Using Plate Reader - 2084-02_Inhibitor_Dose_DryPowder_Activity_Set7.; format: functional
[4] = molecular target: Metabotropic glutamate receptor 3 (Rattus norvegicus, UniProt P31422); test: inhibition of rat mGlu3 glutamate signaling – HEK/GIRK cells, thallium flux, dose response (AID 651839); format: functional
Major prion protein = Major prion protein (Homo sapiens, UniProt P04156); format: functional, cell-based
[5] = viability loss in THP-1 monocytes – THP-1 cells, cytotoxicity control for Vif-APOBEC3G degradation inhibitor project, dose response (AID 1117359); format: functional; details: THP-1
[6] = rescue of ΔF508 CFTR function, airway epithelium – human bronchial epithelial cells, plate reader, cherry-pick, two tests, dose response (AID 743267); format: functional, cell-based
[7] = molecular target: T1, Rac GTPase-activating protein 1 (Homo sapiens, UniProt Q9H0H5); test: blockers of MgcRacGAP-driven Rac1 GTP hydrolysis – biochemical, ADP Hunter fluorescence, primary and confirmatory, confirmation (AID 624330); format: functional
T1 sequence (Q9H0H5 whole entry): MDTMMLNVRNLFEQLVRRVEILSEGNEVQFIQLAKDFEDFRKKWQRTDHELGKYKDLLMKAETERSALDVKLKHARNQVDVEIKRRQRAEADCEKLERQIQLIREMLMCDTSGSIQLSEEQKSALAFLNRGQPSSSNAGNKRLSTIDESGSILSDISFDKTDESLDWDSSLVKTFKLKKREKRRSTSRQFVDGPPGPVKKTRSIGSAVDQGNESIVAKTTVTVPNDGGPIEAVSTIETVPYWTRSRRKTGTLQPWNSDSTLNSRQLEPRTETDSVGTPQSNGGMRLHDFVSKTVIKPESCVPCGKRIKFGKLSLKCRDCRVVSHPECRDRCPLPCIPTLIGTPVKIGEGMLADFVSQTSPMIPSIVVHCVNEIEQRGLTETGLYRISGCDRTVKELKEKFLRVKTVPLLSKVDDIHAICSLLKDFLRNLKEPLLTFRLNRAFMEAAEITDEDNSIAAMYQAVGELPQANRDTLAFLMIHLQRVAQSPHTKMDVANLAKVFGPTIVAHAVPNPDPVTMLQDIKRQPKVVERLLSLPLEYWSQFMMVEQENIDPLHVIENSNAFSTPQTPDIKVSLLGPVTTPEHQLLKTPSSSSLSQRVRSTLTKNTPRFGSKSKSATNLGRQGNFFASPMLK

[8] = molecular target: Protein disulfide-isomerase (Homo sapiens, UniProt P07237); test: inhibition of PDI-mediated insulin reduction – biochemical, turbidity, dry powder samples, set 2, confirmation (AID 652146)
Cryptococcus neoformans [9] = test: Cryptococcus growth inhibition by alamar blue – cell lysis, cherry-picks, replicate tests, mechanism study for C. neoformans antifungal project, dose response (AID 686999); format: functional, organism-based
Cryptococcus neoformans [10] = test: PubChem AID 686997; format: functional, organism-based

CCN1CCN(C2=C(Nc3cccc(Cl)c3)C(=O)c3ccccc3C2=O)CC1
AC50 [1]: 2.94 µM (active)
AC50 [2]: 31.7 µM (active)
AC50 [3]: 10.1 µM (active)

COc1ccc(C#Cc2ccc(C(=O)N3CCC[C@@H](CO)C3)cc2)c(F)c1
IC50 [4]: 4.92 µM

CCOc1ccc(-n2nc3c(S)nnc(C)c3c2C)cc1
IC50 (cells): > 138 µM (inactive)
IC50 (Major prion protein): 0.321 µM (active)

C=CC/N=c1\scc(C)n1/N=C/c1ccc(O)c(O)c1
CC50 [5]: 19.8 µM (active)
AC50 [6]: 50 µM (active)
IC50 [7]: 17.4 µM (active)

CCOC(=O)C1(CCOC)CCN(Cc2ccc(O)c(Cl)c2)CC1
AC50 [8]: > 30 µM (inactive)

COC(=O)C1=C(C)N(Cc2ccccc2)C(=S)NC1c1ccc(Br)cc1 (configuration not stated)
AC50 (Cryptococcus neoformans [9]): 35 µM (active)
AC50 (Cryptococcus neoformans [10]): 25 µM (active)
